Data taken from patent publication US8778919B2, “Cyclic anilino—pyridinotriazines” (Janssen Pharmaceutica NV, priority 2005, dated 2014).

Columns and labels:
Format in all cases: biochemical
GSK-3α = GSK-3α (Homo sapiens, UniProt P49840); experiment: GSK-3 kinase assay (C1), GSK-3α; conditions: 1 μM ATP; for IC50: read-out: C1 Score α
In short: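 Radiometric SPA at room temperature in 25 mM Tris pH 7.4 with 10 mM MgCl2, 1 mM DTT, 5.7 ng/μl GSK-3β or 0.25 ng/μl GSK-3α, 5 μM biotinylated CREB peptide and 1 μM ATP plus ^33P-ATP. Stopped after 1 h; IC50 from dose-response versus no-compound control, reported as pIC50 score bands.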

CDK1/cyclinB (h) = CDK1/cyclinB (h) (Homo sapiens, UniProt P06493); experiment: Kinase profiling C3.2 CDK1/cyclinB human; conditions: test concentration of 10^−6 M
In short: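 Radiometric filter-binding assay: human CDK1/cyclinB (5-10 mU) with 0.1 mg/ml histone H1 substrate and [γ-33P]ATP in 8 mM MOPS pH 7.0, 10 mM Mg acetate, 40 min at room temperature. Stopped with phosphoric acid; substrate-bound 33P counted on P30 filtermat by scintillation.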

CDK2/cyclinE (h) = CDK2/cyclinE (h) (Homo sapiens, UniProt P24941); experiment: Kinase profiling C3.4 CDK2/cyclinE human; conditions: test concentration of 10^−6 M
In short: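 Radiometric filter-binding assay: 5-10 mU enzyme with 0.1 mg/ml histone H1 in 8 mM MOPS pH 7.0, 0.2 mM EDTA, 10 mM Mg acetate and [γ-33P]ATP. Incubated 40 min at room temperature, stopped with phosphoric acid. Substrate-bound 33P counted on P30 filtermat.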

CDK3/cyclinE (h) = CDK3/cyclinE (h) (Homo sapiens, UniProt Q00526); experiment: Kinase profiling C3.5 CDK3/cyclinE human; conditions: test concentration of 10^−6 M
In short: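 Human CDK3/cyclinE (5-10 mU) phosphorylated 0.1 mg/ml histone H1 in 8 mM MOPS pH 7.0, 0.2 mM EDTA and 10 mM MgAcetate with [γ-33P]ATP. Reaction ran 40 min at room temperature and was stopped with phosphoric acid. Substrate-bound radioactivity was captured on P30 filtermat and measured by scintillation counting.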

CDK5/p35 human = CDK5/p35 human (Homo sapiens, UniProt Q00535); experiment: Kinase profiling C3.6 CDK5/p35 human; conditions: CDK5/p35, test concentration of 10^−6 M
In short: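 Radiometric filter-binding assay: human CDK5/p35 (5-10 mU) with 0.1 mg/ml histone H1 substrate in 8 mM MOPS pH 7.0, 0.2 mM EDTA, 10 mM Mg acetate and [γ-33P]ATP. Incubated 40 min at room temperature, stopped with phosphoric acid. Substrate 33P incorporation counted on P30 filtermat by scintillation.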

CDK7/cyclinH/MAT1 (h) = CDK7/cyclinH/MAT1 (h) (Homo sapiens, UniProt P50613); experiment: Kinase profiling C3.8 CDK7/cyclinH/MAT1 human; conditions: CDK7/cyclinH/MAT1, test concentration of 10^−6 M
In short: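 Human CDK7/cyclinH/MAT1 (5-10 mU) incubated 40 min at room temperature in 8 mM MOPS pH 7.0, 0.2 mM EDTA, 10 mM Mg acetate, 500 μM peptide substrate and [γ-^33P]ATP. Stopped with phosphoric acid; substrate phosphorylation measured by filter binding and scintillation counting.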

Chain of CDK5/p35 human (Q00535 whole entry): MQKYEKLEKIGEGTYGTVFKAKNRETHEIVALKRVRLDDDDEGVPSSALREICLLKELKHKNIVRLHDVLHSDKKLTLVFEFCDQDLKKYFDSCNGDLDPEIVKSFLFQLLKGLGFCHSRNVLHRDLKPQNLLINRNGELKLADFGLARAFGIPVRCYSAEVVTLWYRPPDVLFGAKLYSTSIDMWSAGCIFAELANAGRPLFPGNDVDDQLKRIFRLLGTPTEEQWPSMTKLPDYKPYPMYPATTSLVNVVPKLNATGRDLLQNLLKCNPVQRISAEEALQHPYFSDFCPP
Chain of CDK5/p35 human (Q15078 whole entry partner): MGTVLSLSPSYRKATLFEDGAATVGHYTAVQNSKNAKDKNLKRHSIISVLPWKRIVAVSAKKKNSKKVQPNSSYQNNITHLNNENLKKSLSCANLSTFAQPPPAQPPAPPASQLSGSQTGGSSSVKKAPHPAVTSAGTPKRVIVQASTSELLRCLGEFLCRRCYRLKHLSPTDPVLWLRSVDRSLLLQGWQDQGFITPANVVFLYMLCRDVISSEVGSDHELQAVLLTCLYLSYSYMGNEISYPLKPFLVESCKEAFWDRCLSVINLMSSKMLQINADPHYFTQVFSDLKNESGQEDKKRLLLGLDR
Chain of CDK7/cyclinH/MAT1 (h) (P50613 whole entry): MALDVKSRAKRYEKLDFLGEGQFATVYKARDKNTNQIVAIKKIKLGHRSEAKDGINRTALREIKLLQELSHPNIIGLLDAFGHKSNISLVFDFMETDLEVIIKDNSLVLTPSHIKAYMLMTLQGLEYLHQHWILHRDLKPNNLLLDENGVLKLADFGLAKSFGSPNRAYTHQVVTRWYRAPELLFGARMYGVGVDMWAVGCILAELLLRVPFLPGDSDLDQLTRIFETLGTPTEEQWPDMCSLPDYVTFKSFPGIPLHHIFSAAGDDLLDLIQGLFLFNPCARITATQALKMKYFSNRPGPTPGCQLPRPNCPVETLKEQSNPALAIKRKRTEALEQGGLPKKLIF
Chain of CDK7/cyclinH/MAT1 (h) (P51946 whole entry partner): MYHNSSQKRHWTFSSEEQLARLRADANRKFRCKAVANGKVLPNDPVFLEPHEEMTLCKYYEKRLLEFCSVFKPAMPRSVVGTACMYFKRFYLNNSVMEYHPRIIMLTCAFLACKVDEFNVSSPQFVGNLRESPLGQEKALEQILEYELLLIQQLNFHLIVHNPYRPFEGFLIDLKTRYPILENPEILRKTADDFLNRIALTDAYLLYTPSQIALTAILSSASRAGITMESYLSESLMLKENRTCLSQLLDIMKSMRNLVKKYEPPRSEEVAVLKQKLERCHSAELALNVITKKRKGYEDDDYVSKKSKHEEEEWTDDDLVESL
Chain of CDK7/cyclinH/MAT1 (h) (P51948 whole entry partner): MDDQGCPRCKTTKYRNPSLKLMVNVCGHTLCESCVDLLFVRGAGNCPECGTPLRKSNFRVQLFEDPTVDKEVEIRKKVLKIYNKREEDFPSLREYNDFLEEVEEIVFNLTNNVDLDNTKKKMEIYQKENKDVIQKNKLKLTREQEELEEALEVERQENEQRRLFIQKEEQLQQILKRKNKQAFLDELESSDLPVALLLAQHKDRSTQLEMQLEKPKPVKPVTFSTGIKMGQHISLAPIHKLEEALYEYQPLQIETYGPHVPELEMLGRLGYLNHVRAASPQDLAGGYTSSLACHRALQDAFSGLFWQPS
Chain of GSK-3α (P49840 whole entry, species assumed): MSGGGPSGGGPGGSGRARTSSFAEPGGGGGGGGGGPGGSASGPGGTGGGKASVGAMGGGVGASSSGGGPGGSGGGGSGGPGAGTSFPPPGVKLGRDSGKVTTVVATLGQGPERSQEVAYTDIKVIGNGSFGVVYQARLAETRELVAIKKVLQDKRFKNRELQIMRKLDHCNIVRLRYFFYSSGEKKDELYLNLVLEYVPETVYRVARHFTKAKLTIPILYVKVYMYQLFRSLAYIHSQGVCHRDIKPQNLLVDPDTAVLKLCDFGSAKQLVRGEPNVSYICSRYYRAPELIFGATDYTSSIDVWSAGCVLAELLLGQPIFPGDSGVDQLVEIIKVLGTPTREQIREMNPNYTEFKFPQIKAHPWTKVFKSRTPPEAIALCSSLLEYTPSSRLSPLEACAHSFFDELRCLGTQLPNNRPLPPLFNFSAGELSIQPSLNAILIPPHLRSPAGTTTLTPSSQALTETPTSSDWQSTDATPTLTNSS
Chain of CDK1/cyclinB (h) (P06493 whole entry): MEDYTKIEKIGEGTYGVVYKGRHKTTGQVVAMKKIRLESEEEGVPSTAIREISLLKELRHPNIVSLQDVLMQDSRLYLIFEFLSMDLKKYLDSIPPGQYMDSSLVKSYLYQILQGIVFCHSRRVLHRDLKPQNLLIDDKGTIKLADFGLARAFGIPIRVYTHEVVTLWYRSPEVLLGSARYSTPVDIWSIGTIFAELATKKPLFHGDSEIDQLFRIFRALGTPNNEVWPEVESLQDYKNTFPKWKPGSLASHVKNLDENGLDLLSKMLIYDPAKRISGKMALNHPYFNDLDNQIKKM
Chain of CDK1/cyclinB (h) (P14635 whole entry partner): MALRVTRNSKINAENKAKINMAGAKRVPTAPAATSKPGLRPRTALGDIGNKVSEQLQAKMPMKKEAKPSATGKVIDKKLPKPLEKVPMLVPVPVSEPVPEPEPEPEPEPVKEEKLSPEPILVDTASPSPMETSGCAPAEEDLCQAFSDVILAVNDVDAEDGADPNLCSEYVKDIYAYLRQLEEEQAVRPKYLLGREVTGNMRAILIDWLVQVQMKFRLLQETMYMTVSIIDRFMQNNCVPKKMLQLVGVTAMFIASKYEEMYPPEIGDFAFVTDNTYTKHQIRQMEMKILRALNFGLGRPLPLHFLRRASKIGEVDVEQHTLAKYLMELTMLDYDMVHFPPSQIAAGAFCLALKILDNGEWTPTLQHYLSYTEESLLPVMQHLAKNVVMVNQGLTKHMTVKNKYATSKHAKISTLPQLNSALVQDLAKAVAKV

SMILES	IC50 (GSK-3α)	C3.2 score (CDK1/cyclinB (h))	C3.4 score (CDK2/cyclinE (h))	C3.5 score (CDK3/cyclinE (h))	C3.6 score (CDK5/p35 human)	C3.8 score (CDK7/cyclinH/MAT1 (h))	C1 Score α (GSK-3α)
O=C1NCCCc2cc(ccn2)-c2ncnc(n2)Nc2cccc(c2)CN2CCCC1C2 (stereo not drawn) [Compound 15]	10 to 100 nM	1 (Score 1 = 10-30% inhibition)	2 (Score 2 = 30-60% inhibition)	1 (Score 1 = 10-30% inhibition)	1 (Score 1 = 10-30% inhibition)	2 (Score 2 = 30-60% inhibition)	
CN1CCN(CCN2CCC(=O)NCCCc3cc(ccn3)-c3ncnc(n3)Nc3cccc(c3)C2)CC1 [Compound 11]	100 to 1000 nM	1 (Score 1 = 10-30% inhibition)	1 (Score 1 = 10-30% inhibition)	1 (Score 1 = 10-30% inhibition)	1 (Score 1 = 10-30% inhibition)	1 (Score 1 = 10-30% inhibition)	
CN1CCC(=O)NCCCc2cc(ccn2)-c2ncnc(n2)Nc2cccc(c2)C1 [Compound 3]	100 to 1000 nM	4 (Score 4 = >80% inhibition)	4 (Score 4 = >80% inhibition)	3 (Score 3 = 60-80% inhibition)	3 (Score 3 = 60-80% inhibition)	4 (Score 4 = >80% inhibition)	
CN1CC(=O)NCCCc2cc(ccn2)-c2ncnc(n2)Nc2cccc(c2)C1 [Compound 8]		4 (Score 4 = >80% inhibition)	4 (Score 4 = >80% inhibition)	4 (Score 4 = >80% inhibition)	3 (Score 3 = 60-80% inhibition)	2 (Score 2 = 30-60% inhibition)	4 (Score 4=pIC50 value>8)
O=C1NCCCc2cc(ccc2F)-c2ncnc(n2)Nc2cc(Cl)cc(c2)CN[C@H]1CO [Compound 71]	< 10 nM	4 (Score 4 = >80% inhibition)	4 (Score 4 = >80% inhibition)	4 (Score 4 = >80% inhibition)	4 (Score 4 = >80% inhibition)	4 (Score 4 = >80% inhibition)	
O=C1CN2CCN(CC2)Cc2cccc(c2)Nc2ncnc(n2)-c2ccc(F)c(c2)CCCN1 [Compound 66]	< 10 nM	4 (Score 4 = >80% inhibition)	4 (Score 4 = >80% inhibition)	3 (Score 3 = 60-80% inhibition)	3 (Score 3 = 60-80% inhibition)	1 (Score 1 = 10-30% inhibition)	
CN1CCCC(=O)NCCCc2cc(ccn2)-c2ncnc(n2)Nc2cccc(c2)C1 [Compound 13]	100 to 1000 nM	1 (Score 1 = 10-30% inhibition)	2 (Score 2 = 30-60% inhibition)	2 (Score 2 = 30-60% inhibition)	1 (Score 1 = 10-30% inhibition)	2 (Score 2 = 30-60% inhibition)	
CCN1CC(=O)NCCCc2cccc(c2)-c2ncnc(n2)Nc2cccc(c2)C1 [Compound 54]	< 10 nM	3 (Score 3 = 60-80% inhibition)	4 (Score 4 = >80% inhibition)	2 (Score 2 = 30-60% inhibition)	3 (Score 3 = 60-80% inhibition)	1 (Score 1 = 10-30% inhibition)	

Continued, values first:

IC50 (GSK-3α)	C3.2 score (CDK1/cyclinB (h))	C3.4 score (CDK2/cyclinE (h))	C3.5 score (CDK3/cyclinE (h))	C3.6 score (CDK5/p35 human)	C3.8 score (CDK7/cyclinH/MAT1 (h))	C1 Score α (GSK-3α)	SMILES
< 10 nM	4 (Score 4 = >80% inhibition)	4 (Score 4 = >80% inhibition)	4 (Score 4 = >80% inhibition)	4 (Score 4 = >80% inhibition)	3 (Score 3 = 60-80% inhibition)		CN1CC(=O)NCCCc2cc(ccn2)-c2ncnc(n2)Nc2cc(Cl)cc(c2)C1 [Compound 33]
< 10 nM	4 (Score 4 = >80% inhibition)	4 (Score 4 = >80% inhibition)	3 (Score 3 = 60-80% inhibition)	3 (Score 3 = 60-80% inhibition)	2 (Score 2 = 30-60% inhibition)		O=C1CN2CCN(CC2)Cc2cc(Cl)cc(c2)Nc2ncnc(n2)-c2ccnc(c2)CCCN1 [Compound 41]
< 10 nM	4 (Score 4 = >80% inhibition)	4 (Score 4 = >80% inhibition)	4 (Score 4 = >80% inhibition)	4 (Score 4 = >80% inhibition)	1 (Score 1 = 10-30% inhibition)		O=C1NCCCc2cccc(c2)-c2ncnc(n2)Nc2cccc(c2)CN[C@H]1CO [Compound 46]
< 10 nM	4 (Score 4 = >80% inhibition)	4 (Score 4 = >80% inhibition)	3 (Score 3 = 60-80% inhibition)	3 (Score 3 = 60-80% inhibition)	1 (Score 1 = 10-30% inhibition)		O=C1NCCCc2cncc(c2)-c2ncnc(n2)Nc2cccc(c2)CN[C@H]1CO [Compound 81]
< 10 nM	4 (Score 4 = >80% inhibition)	4 (Score 4 = >80% inhibition)	4 (Score 4 = >80% inhibition)	4 (Score 4 = >80% inhibition)	2 (Score 2 = 30-60% inhibition)		CN1CCCc2cc(ccn2)-c2ncnc(n2)Nc2cccc(c2)CNC(=O)C1 [Compound 7]
